Laboratory results published in patent US20260199287A1, “LIPO-HYDROXAMIC ACID DERIVATIVE AND PHARMACEUTICAL USE THEREOF” (MediciBIO Co., Ltd, priority 2022, published 2026).

Columns and labels:
Sprague-Dawley rats = test: Antioxidant activity in vivo, H2O2 level after benzalkonium-induced corneal oxidative stress; design: species or system rat; details: 0.1% and 0.3% eye drops, 10 μL, three times a day for 3 days; compared to control (0.02% benzalkonium)
Protocol: To determine the effect of the sample on oxidative stress, animal experiments were conducted using Sprague-Dawley rats (purchased from Bio Link). To induce oxidative stress in the cornea of an animal model, the anterior chamber of the right eye was punctured using a syringe equipped with a 30G needle, and then the needle was inserted into the corneal limbus to inject 0.02% benzalkonium (BAK), a known oxidative stress inducer. The ocular surface was subsequently rinsed with sterile saline. To determine whether oxidative stress was induced, the H2O2 level, an indicator of oxidative stress, was measured in the anterior aqueous humor and corneal tissue using the Amplex Red Hydrogen Peroxide/Peroxidase assay kit (Invitrogen, MA, USA) according to the manufacturer's instructions. Afterwards, the animal model received 10 μL drops (single dose) of the sample (Sample 1) at a dose of 0.1% or 0.3% for 24 hours, including pretreatment, three times a day for 3 days, and then the H2O2 level in the anterior aqueous humor was measured. Additionally, proteins were extracted from the harvested corneal tissue, and Western blot was performed in the same manner as in Example 5-1 to examine the expression of the Nrf2 protein. […]

fibronectin = test: Real-time PCR, fibronectin mRNA; format: cell-based, human; details: corneal dystrophy-like environment
Protocol: (§1) To identify the antioxidant mechanism of the lipo-hydroxamic acid derivative prepared above, real-time PCR was performed to detect the mRNA expression levels of the antioxidant enzymes downstream of Nrf2. First, human corneal endothelial cells were cultured at 3×10^5 cells per well in a 6-well plate coated with FNC Coating Mix for 18 to 24 hours, and the samples were treated. Four hours after the sample treatment, the corneal dystrophy-like environment was induced using the same method as described in Example 3-2. Twenty-four hours after inducing the corneal dystrophy-like environment, RNA was isolated from the cells using an RNA extraction kit (Bioneer, Daejeon), and cDNA was synthesized from […] of RNA using RT PreMix (Bioneer). Subsequently, real-time PCR was performed using GoTaq mater mix (Promega) containing SYBR green solution at 95° C. for 2 minutes, followed by 35 cycles at 95° C. for 15 seconds and at 60° C. for 1 minute.
To identify the effect of the lipo-hydroxamic acid derivative prepared above on the expression of fibrosis- and cellular degeneration-related factors in corneal endothelial cells, real-time PCR was performed to detect mRNA expression levels of the fibrosis marker N-cadherin, and the cellular degeneration markers collagen I and fibronectin. The real-time PCR was performed in the same manner as in Example 5-2 above.

peroxiredoxin 1 (Prdx1) = test: Real-time PCR, Prdx1 mRNA; format: cell-based, human; details: corneal dystrophy-like environment
Protocol: as §1

[1] = test system: nuclear factor erythroid-2-related factor 2 (Nrf2); test: Western blot of Nrf2 protein expression; format: cell-based, human; details: compared to the control; corneal dystrophy-like environment
Protocol: To identify a mechanism of antioxidant activity of the lipo-hydroxamic acid derivative prepared above, Western blot was performed to detect protein expression of nuclear factor erythroid-2-related factor 2 (Nrf2; NCBI Gene ID: 4780) which is an antioxidant transcription factor. First, human corneal endothelial cells were cultured at 3×10^5 cells per well in a 6-well plate coated with FNC Coating Mix for 18 to 24 hours, and the samples were treated. Four hours after the sample treatment, the corneal dystrophy-like environment was induced in accordance with the method described in Example 3-2. Twenty-four hours after induction of the corneal dystrophy-like environment, the cells were washed with phosphate-buffered saline (PBS) and lysed using RIPA lysis buffer (GenDEPOT) containing protease inhibitor cocktail tablets (GenDEPOT, TX, USA). The cell lysates were centrifuged at 13,000 rpm at 4° C. for 10 minutes to obtain the supernatant. Protein concentration in the supernatant was determined using a BCA kit (Thermo Fisher Scientific, MA, USA). Equal amounts of protein were mixed with 5x SDS sample buffer and boiled for 5 minutes, followed by gel electrophoresis. The separated proteins were transferred to a nitrocellulose membrane (GenDEPOT), and nonspecific antibody binding was blocked by incubating the membrane in 5% skim milk at room temperature for 1 hour. […]

Smad2/3 = test: Western blot of Smad2/3 phosphorylation; format: cell-based, human; details: compared to the control group (corneal dystrophy-mimicking)
[2] = test system: human corneal endothelial cells; test: Anti-apoptotic effect, CellTiter-Glo 2.0 cell viability assay in corneal dystrophy-like environment; format: cell-based; details: compared to control group (corneal dystrophy-mimicking); 24 hours treatment
Protocol: PriNeu I medium, which is a serum-free medium, was supplemented with 10% fetal bovine serum, human epidermal growth factor (EGF), human vascular endothelial growth factor (VEGF), human insulin, human transferrin, sodium selenite, hydrocortisone, heparin, R estradiol, L-glutamine, penicillin/streptomycin, and G418 (geneticin). Human corneal endothelial cells (purchased from Creative Biolabs (NY, USA)) were seeded onto culture dishes coated with FNC Coating Mix (Athena Environmental Science, MD, USA) and incubated at 37° C. in a humidified 5% CO2 atmosphere. […]
In order to identify the effect of the lipo-hydroxamic acid derivative prepared above on apoptosis caused by corneal dystrophy in corneal endothelial cells, human corneal endothelial cells were cultured in the same manner as in Example 3-1. […] Afterwards, the samples (Samples 1, 4, and 5) were pretreated for 24 hours, and cell viability was measured via the CellTiter-Glo 2.0 cell viability assay (Promega). The number of viable cells was determined based on intracellular ATP levels, and the luminescence intensity was measured using a GloMax Discover microplate reader (Promega).

With `O=C(CCCCC1CCSS1)NOCCO` (stereo not drawn) [Sample 1, 5-[1,2]dithiolan-3-yl-pentanoic acid (2-hydroxy-ethoxy)-amide] the “decrease of H2O2 in the anterior aqueous humor” value (Sprague-Dawley rats) was 40-70%, the “mRNA expression of fibronectin” value (fibronectin) was “significantly decreased in a concentration-dependent manner” and the “mRNA expression of peroxiredoxin 1 (Prdx1)” value (peroxiredoxin 1 (Prdx1)) was “significantly increased”. For the same compound, the Nrf2 protein expression [1] was “significantly increased”, the “phosphorylation of Smad2/3 protein” value (Smad2/3) was “significantly decreased” and the “concentration from which a significant increase in cell viability was observed” value [2] was no less than 30 µM.
